Values after ≈ are worked out from the molar mass of the structure shown.
What was measured:
Assay type in all cases: functional
Escherichia coli [1] = test: Antibacterial activity against metallo-beta-lactamase VIM12 expressing Escherichia coli 28 isolate from decubitus ulcer infection patient by Etest
Escherichia coli [2] = test: Antibacterial activity against Escherichia coli 26R793 by Etest
Escherichia coli [3] = test: Antibacterial activity against Escherichia coli transconjugant carrying pEC28 isolate eby Etest

| SMILES | MIC (Escherichia coli [1]) [µg/mL] | MIC (Escherichia coli [2]) [µg/mL] | MIC (Escherichia coli [3]) [µg/mL] |
| --- | --- | --- | --- |
| NCC[C@H](O)C(=O)N[C@@H]1C[C@H](N)[C@@H](O[C@H]2O[C@H](CN)[C@@H](O)[C@H](O)[C@H]2O)[C@H](O)[C@H]1O[C@H]1O[C@H](CO)[C@@H](O)[C@H](N)[C@H]1O [AMIKACIN] | 128 (≈ 219 µM) | 2 (≈ 3.42 µM) | 48 (≈ 82 µM) |
| CC1(C)S[C@@H]2[C@H](NC(=O)[C@H](N)c3ccc(O)cc3)C(=O)N2[C@H]1C(=O)O [AMOXICILLIN] | > 256 | 4 (≈ 10.9 µM) | 32 (≈ 87.6 µM) |
| C[C@H]1[C@H](NC(=O)/C(=N\OC(C)(C)C(=O)O)c2csc(N)n2)C(=O)N1S(=O)(=O)O [AZTREONAM] | 1 (≈ 2.3 µM) | 0.094 (≈ 0.216 µM) | 0.5 (≈ 1.15 µM) |
| CO/N=C(\C(=O)N[C@@H]1C(=O)N2C(C(=O)[O-])=C(C[N+]3(C)CCCC3)CS[C@H]12)c1csc(N)n1 [CEFEPIME] | 12 (≈ 25 µM) | 0.094 (≈ 0.196 µM) | 1 (≈ 2.08 µM) |
| CO/N=C(\C(=O)N[C@@H]1C(=O)N2C(C(=O)O)=C(COC(C)=O)CS[C@H]12)c1csc(N)n1 [CEFOTAXIME] | > 32 | 0.094 (≈ 0.206 µM) | 8 (≈ 17.6 µM) |
| CO[C@@]1(NC(=O)Cc2cccs2)C(=O)N2C(C(=O)O)=C(COC(N)=O)CS[C@@H]21 [CEFOXITIN] | > 256 | 8 (≈ 18.7 µM) | 32 (≈ 74.9 µM) |
| CC(C)(O/N=C(\C(=O)N[C@@H]1C(=O)N2C(C(=O)[O-])=C(C[n+]3ccccc3)CS[C@H]12)c1csc(N)n1)C(=O)O [CEFTAZIDIME] | > 256 | 0.75 (≈ 1.37 µM) | 4 (≈ 7.32 µM) |
| O=C(O)c1cn(C2CC2)c2cc(N3CCNCC3)c(F)cc2c1=O [CIPROFLOXACIN] | 0.047 (≈ 0.142 µM) | 0.047 (≈ 0.142 µM) | 0.047 (≈ 0.142 µM) |
| C[C@@H](O)[C@H]1C(=O)N2C(C(=O)O)=C(S[C@@H]3CN[C@H](C(=O)Nc4cccc(C(=O)O)c4)C3)[C@H](C)[C@H]12 [ERTAPENEM] | 0.5 (≈ 1.05 µM) | 0.064 (≈ 0.135 µM) | 0.094 (≈ 0.198 µM) |
| C[C@@H](O)[C@H]1C(=O)N2C(C(=O)O)=C(SCCNC=N)C[C@H]12 [IMIPENEM ANHYDROUS] | 1 (≈ 3.34 µM) | 0.5 (≈ 1.67 µM) | – |
| C[C@@H](O)[C@H]1C(=O)N2C(C(=O)O)=C(S[C@@H]3CN[C@H](C(=O)N(C)C)C3)[C@H](C)[C@H]12 [MEROPENEM] | 0.25 (≈ 0.652 µM) | 0.032 (≈ 0.0834 µM) | 0.023 (≈ 0.06 µM) |
| CN(C)[C@@H]1C(O)=C(C(N)=O)C(=O)[C@@]2(O)C(O)=C3C(=O)c4c(O)cccc4[C@@](C)(O)[C@H]3C[C@@H]12 [TETRACYCLINE] | > 256 | 1 (≈ 2.25 µM) | 1 (≈ 2.25 µM) |

Source: ChEMBL document CHEMBL1155151, “First occurrence of an Escherichia coli clinical isolate producing the VIM-1/VIM-2 hybrid metallo-beta-lactamase VIM-12” (2007)
